Results on 17 compounds are retold here after patent US20100286152A1, “N-PHENYL HYDRAZIDES AS MODULATORS OF THE GHRELIN RECEPTOR” (Glaxo Group Limited, priority 2007, published 2010).

For one test, the target named is T1, Human GHS-R (ghrelin receptor) (Homo sapiens, UniProt Q92847).
T1 construct: The full-length gene was transferred into pCDN for expression analysis; expressed in transfected cells; host or cells: U2OS cells transduced with human GHSR BacMam virus
T1 sequence (Q92847 whole entry): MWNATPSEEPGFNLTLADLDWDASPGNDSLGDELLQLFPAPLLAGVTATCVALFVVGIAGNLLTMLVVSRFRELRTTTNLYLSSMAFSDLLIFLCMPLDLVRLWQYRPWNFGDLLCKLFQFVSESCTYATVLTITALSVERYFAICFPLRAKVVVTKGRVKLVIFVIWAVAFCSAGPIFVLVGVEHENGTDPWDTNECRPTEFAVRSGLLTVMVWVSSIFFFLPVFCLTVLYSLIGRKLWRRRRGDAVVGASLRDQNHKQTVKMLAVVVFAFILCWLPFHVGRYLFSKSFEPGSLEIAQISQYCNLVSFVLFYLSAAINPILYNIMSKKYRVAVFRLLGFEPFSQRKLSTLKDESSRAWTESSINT
Briefly: GHSR Agonist BACMAM FLIPR Assay (Method X or Y). The format is cell-based. The settings on record: U2OS cells, maximum asymptote relative to that of the hGhrelin concentration response curve. On the procedure: (§1) 24 h prior to assay U2OS cells at confluence 100% were harvested and spun down. The supernatant was removed and the cells resuspended in media (DMEM+10% FBS+1% L-Glutamine). A cell count was performed using the Cedex instrumentation, and the concentration of cells was adjusted using media to give 200K cells per mL (10K cells/50 μL).
(§2) Human GHSR BACMAM virus was added to the cell suspension at an appropriate % volume (calculated for individual batches of BACMAM virus as viral titres vary). The transduced cell suspension was dispensed into FLIPR 384-well clear bottom plates, 50 μL per well. Cell plates were incubated at 37° C. overnight.
Master compound plates were prepared in 100% DMSO. 3 mM was the top concentration (giving 10 μM final concentration) and they were serially diluted 1 in 4. 1 μL from the master plate was transferred to a daughter plate, to which was added 50 μL of compound dilution (Tyrodes {Elga water+145 mM NaCl+5 mM KCl+20 mM HEPES+10 mM glucose+1 mM MgCl2+1.5 mM CaCl2}. For the agonist assay, the compound buffer also contained 0.1% BSA. This plate was used for the assay. Ghrelin was always prepared in buffer containing 0.1% BSA.
Master compound plates were prepared in 100% DMSO. 3 mM was the top concentration (giving 10 μM final concentration) and they were serially diluted 1 in 4. 1 μL from the master plate was transferred to a daughter plate, to which was added 50 μL of compound dilution (HBSS {Elga water+137 mM NaCl+5 mM KCl+0.41 mMa KH2PO4(anhyd)+20 mM HEPES+5 mM glucose+0.81 mM MgSO4(anhyd)+1.3 mM CaCl2+4.16 mM NaHCO3}. For the agonist assay, the compound buffer also contained 0.1% BSA. This plate was used for the assay. Ghrelin was always prepared in buffer containing 0.1% BSA.
Media was aspirated from cell plates using a cell washer (leaving 10 μL of media). Cells were immediately loaded with loading buffer (Tyrodes buffer-(Elga water+145 mM NaCl+5 mM KCl+20 mM HEPES+10 mM glucose+1 mM MgCl2)+1.5 mM CaCl2+0.714 mg/mL Probenecid (predissolved in 1 M NaOH)+0.25 mM brilliant black+2 μM Fluo 4 dye, and incubated at 37.5° C., 5% CO2 for 90 min. The plates were placed in a FLuorimetric Imaging Plate Reader (FLIPR, Molecular Devices) where 10 μL of compound, prepared according to method A above, was added to the cells and fluorescence measurements were taken. Maximum changes in fluorescence were plotted as a percentage of the maximum response elicited by 300 nM hGhrelin and curves fitted using a 4-parameter logistic equation to generate pEC50 values. Intrinsic activity of the compounds was calculated by using the maximum asymptote of it's concentration response curve relative to the maximum asymptote of the hGhrelin concentration response curve.
Media was aspirated from cell plates using a cell washer (leaving 10 μL of media). Cells were immediately loaded with loading buffer (HBSS (Elga water+137 mM NaCl+5 mM KCl+0.41 mM KH2PO4(anhyd)+20 mM HEPES+5 mM glucose+0.81 mM MgSO4(anhyd))+1.3 mM CaCl2+4.16 mM NaHCO3+0.714 mg/mL Probenecid (predissolved in 1 M NaOH)+0.25 mM brilliant black+2 μM Fluo 4 dye, and incubated at 37.5° C., 5% CO2 for 90 min. The plates were placed in a FLuorimetric Imaging Plate Reader (FLIPR, Molecular Devices) where 10 μL of compound, prepared according to method B above, was added to the cells and fluorescence measurements were taken. Maximum changes in fluorescence were plotted as a percentage of the maximum response elicited by 300 nM hGhrelin and curves fitted using a 4-parameter logistic equation to generate pEC50 values. Intrinsic activity of the compounds was calculated by using the maximum asymptote of it's concentration response curve relative to the maximum asymptote of the hGhrelin concentration response curve.
As for `CN1CCN(C(C(=O)NNc2cc(C(F)(F)F)cc(C(F)(F)F)c2)c2cncnc2)CC1` (single isomer, unassigned; enantiomer 1) [Compound 78, N′-[3,5-bis(trifluoromethyl)phenyl]-2-(4-methyl-1-piperazinyl)-2-(5-pyrimidinyl)acetohydrazide-enantiomer 1], the “intrinsic activity (IA)” value is listed as 0.4. Consider `CN1CCN(C(C(=O)NNc2cc(C(F)(F)F)cc(C(F)(F)F)c2)c2cccc(Cl)c2)CC1.O=CO` (racemic) [Compound 45, (±)-formic acid-N′-[3,5-bis(trifluoromethyl)phenyl]-2-(3-chlorophenyl)-2-(4-methyl-1-piperazinyl)acetohydrazide], for which the “intrinsic activity (IA)” value amounted to 0.4. Same read-out and setting: as for `O=C(NNc1cc(C(F)(F)F)cc(C(F)(F)F)c1)C(c1ccccc1Cl)N1CCN2CCC[C@@H]2C1` (single isomer, unassigned; diastereoisomer 2) [Compound 85], the figure is 0.4; as for `CN1CCN(C(C)(C(=O)NNc2cc(C(F)(F)F)cc(C(F)(F)F)c2)c2ccccn2)CC1` (single isomer, unassigned) [Compound 130, N′-[3,5-bis(trifluoromethyl)phenyl]-2-(4-methyl-1-piperazinyl)-2-(2-pyridinyl)propanohydrazide], 0.4. Still for that read-out and setting: with `CN1CCC(C(C(=O)NNc2cc(Cl)cc(Cl)c2)c2cccc3ccccc23)CC1` (single isomer, unassigned; enantiomer 1) [Compound 73, N′-(3,5-dichlorophenyl)-2-(1-methyl-4-piperidinyl)-2-(1-naphthalenyl)-acetohydrazide-enantiomer 1] the figure was 0.4.

Consider `Cc1ccc(C(C(=O)NNc2cc(C(F)(F)F)cc(C(F)(F)F)c2)N2CCN3CCC[C@@H]3C2)c(C)n1` (single isomer, unassigned; diastereoisomer 1) [Compound 80], for which the “intrinsic activity (IA)” value worked out at 0.4. The same measure, in the same setting: with `CN1CCN(C(C(=O)NNc2cc(C(F)(F)F)cc(C(F)(F)F)c2)c2cccc3c2OC(F)(F)O3)CC1` (racemic) [Compound 46, (±)-N′-[3,5-bis(trifluoromethyl)phenyl]-2-(2,2-difluoro-1,3-benzodioxol-4-yl)-2-(4-methyl-1-piperazinyl)acetohydrazide] the figure was 0.4; with `O=C(NNc1cc(C(F)(F)F)cc(C(F)(F)F)c1)C(c1cccnc1)N1CCN2CCC[C@H]2C1` (single isomer, unassigned) [Compound 126], 0.4. Same read-out and setting: with `Cc1cccnc1C(C(=O)NNc1cc(C(F)(F)F)cc(C(F)(F)F)c1)N1CCN(C)CC1` (single isomer, unassigned; enantiomer 1) [Compound 55, N′-[3,5-bis(trifluoromethyl)phenyl]-2-(4-methyl-1-piperazinyl)-2-(3-methyl-2-pyridinyl)acetohydrazide-enantiomer 1] the figure was 0.4. For `CN1CCN(C(C(=O)NNc2cc(C(F)(F)F)cc(C(F)(F)F)c2)c2ccccc2Cl)CC1` (single isomer, unassigned; enantiomer 1) [Compound 9, N′-[3,5-bis(trifluoromethyl)phenyl]-2-(2-chlorophenyl)-2-(4-methyl-1-piperazinyl)acetohydrazide-enantiomer 1], the “intrinsic activity (IA)” value is given as 0.4. For the compound `CN1CCN(C(C(=O)NNc2cc(C(F)(F)F)cc(C(F)(F)F)c2)c2ccc3c(c2)CCO3)CC1` (single isomer, unassigned; enantiomer 1) [Compound 20, N′-[3,5-bis(trifluoromethyl)phenyl]-2-(2,3-dihydro-1-benzofuran-5-yl)-2-(4-methyl-1-piperazinyl)acetohydrazide-enantiomer 1], the “intrinsic activity (IA)” value is recorded as 0.4. As to `CN1CCN(C(C(=O)NNc2cc(C(F)(F)F)cc(C(F)(F)F)c2)c2cccc(OC(F)(F)F)c2)CC1` (racemic) [Compound 37, (±)-N′-[3,5-bis(trifluoromethyl)phenyl]-2-(4-methyl-1-piperazinyl)-2-{3-[(trifluoromethyl)oxy]phenyl}acetohydrazide], the “intrinsic activity (IA)” value amounted to 0.4.

`O=C(NNc1cc(C(F)(F)F)cc(C(F)(F)F)c1)C(c1ccccc1Cl)N1CCN2CCC[C@H]2C1` (single isomer, unassigned; diastereoisomer 2) [Compound 83]: the “intrinsic activity (IA)” value stood at 0.4. Regarding `Cc1cccnc1C(C(=O)NNc1cc(C(F)(F)F)cc(C(F)(F)F)c1)N1CCN(C)CC1` (single isomer, unassigned; enantiomer 2) [Compound 56, N′-[3,5-bis(trifluoromethyl)phenyl]-2-(4-methyl-1-piperazinyl)-2-(3-methyl-2-pyridinyl)acetohydrazide-enantiomer 2], the “intrinsic activity (IA)” value is listed as 0.4.

A further test has as its target T1, Human GHS-R (ghrelin receptor). Briefly: GHSR Agonist BACMAM FLIPR Assay (Method Z). The format is cell-based. The settings on record: U2OS cells, maximum asymptote relative to maximum response of hGhrelin at 100 nM. On the procedure:
as §1, §2
Master compound plates were prepared in 100% DMSO. 0.6 mM was the top concentration (giving 3 μM final concentration) and they were serially diluted 1 in 4. 1 μL from the master plate was transferred to a daughter plate, to which was added 50 μL of compound dilution (NaCl (145 mM) KCl (5 mM) CaCl2 (2 mM) MgCl2 (1 mM) HEPES (20 mM) D-(+)-Glucose (1 g/l), pluronic acid (0.05%), pH 7.3). This plate was used for the assay. Ghrelin was always prepared in compound dilution buffer containing 0.1% BSA.
Media was washed from cell plates, using a cell washer (leaving 20 μL of washing buffer (NaCl (145 mM)+KCl (5 mM)+CaCl2 (2 mM)+MgCl2 (1 mM)+HEPES (20 mM)+D-(+)-Glucose (1 g/l)+Probenecid (2.5 mM), pH 7.3). Cells were immediately loaded with loading buffer (washing buffer+pluronic acid (0.02%)+Fluo 4 dye (2 μM), and incubated at 37° C., for 60 min. After a second washing step (same as for the pre-loading, but leaving 30 μL of washing buffer), the plates were placed in a FLuorimetric Imaging Plate Reader (FLIPR, Molecular Devices) where 10 μL of compound, prepared according to method C above, was added to the cells and fluorescence measurements were taken. […] Percentage activation of the compounds was calculated by using the maximum asymptote of it's concentration response curve relative to the maximum response of the hGhrelin at 100 nM concentration.
As to `Cc1ncccc1C(C(=O)NNc1cc(C(F)(F)F)cc(C(F)(F)F)c1)N1CCN2CCC[C@@H]2C1` (single isomer, unassigned; diastereoisomer 1) [Compound 94], the percentage activation is above 40%. On the same count and under the same terms, as for `O=C(NNc1cc(C(F)(F)F)cc(C(F)(F)F)c1)C(c1ccc2c(c1)OCCO2)N1CCN2CCC[C@@H]2C1` (single isomer, unassigned; diastereoisomer 1) [Compound 96], the figure is above 40%; as for `Cc1ccc(C(C(=O)NNc2cc(C(F)(F)F)cc(C(F)(F)F)c2)N2CCN3CCC[C@@H]3C2)cn1` (single isomer, unassigned; diastereoisomer 1) [Compound 92], above 40%.
